Assay results taken from patent US10889569B2, “Condensed ring group azacyclobutyl triazole derivative, preparation method therefor and use thereof in medicine” (Jiangsu Hengrui Medicine Co., Ltd., priority 2016, dated 2021).
Values belong to the compound of their own block, whether it stands above or below them.

Experiments:
oxytocin receptor [1] = target: T1, oxytocin receptor (Homo sapiens (Human), UniProt P30559); conditions: orally 400 mg or 800 mg, patient with prospermia, phase II; cited from earlier work
T1 sequence (P30559 whole entry): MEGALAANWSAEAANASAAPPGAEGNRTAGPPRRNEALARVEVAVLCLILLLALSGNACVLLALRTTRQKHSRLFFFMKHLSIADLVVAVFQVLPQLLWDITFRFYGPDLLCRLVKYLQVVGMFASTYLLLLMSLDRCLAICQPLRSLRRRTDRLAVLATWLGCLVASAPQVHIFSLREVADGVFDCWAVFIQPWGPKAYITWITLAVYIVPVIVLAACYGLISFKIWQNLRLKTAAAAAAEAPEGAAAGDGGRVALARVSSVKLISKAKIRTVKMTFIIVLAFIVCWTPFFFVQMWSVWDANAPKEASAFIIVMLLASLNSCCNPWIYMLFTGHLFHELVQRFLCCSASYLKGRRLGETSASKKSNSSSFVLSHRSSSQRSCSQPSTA

human OTR = human OTR (Homo sapiens, UniProt P30559); assay: Inhibition activity on human OTR (Fluo-4 calcium assay, HEK293/human OTR stably transfected cells); type: cell-based; conditions: oxytocin 3 nM
Outline: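 HEK293 cells stably expressing human OTR, loaded with Fluo-4 for 30 min at 37 °C, were preincubated 10 min at room temperature with compound (stocks 10^1–10^6 nM). Oxytocin (3 nM as added) then triggered calcium signal, read immediately at 494/516; IC50 fitted from fluorescence versus concentration.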

[2] = Brain permeability of rats (Kp-unbound); type: in vivo; conditions: both sexes, rat, not told, po; SD rats, 10 mg/kg intragastrically, 0.5 h after administration; read-out: Kp-unbound (blood-brain permeability index)
Protocol: The activity of the compounds of the present invention on the brain permeability of rats was determined by the following experimental method:
Four SD rats (half male and half female) were maintained in a 12 hours light/12 hours dark cycle, in a constant temperature of 24±3° C. and a humidity of 50-60%, and free access to food and water. The compounds were administered intragastrically to the rats after fasting overnight. The administration dosage was 10 mg/kg. The administration group was sacrificed after blood collection at 0.5 h to 2 h after administration (blood volume: 0.5 ml). The blood sample was stored in heparinized tubes, and centrifuged for 10 minutes at 3500 rpm to separate the plasma, which was marked as plasma 1 and stored at […]. The animal was decapitated after sacrificing, and the brain tissue was collected. The residual blood in the brain tissue was sucked with a filter paper, which was marked as brain tissue 1, and stored at 0° C. ten minutes later. Another three animals were treated by the same method as that of administration group to obtain blank plasma and brain tissue 2.
The drug compounds were diluted to 50 mM with DMSO to obtain a stock solution I. An appropriate amount of stock solution I was diluted with methanol to obtain a diluted stock solution II (200 μM). 10 μl of stock solution II was moved to a 1.5 ml Eppendorf tube, and then added with 990 μl of blank plasma, and mixed well to obtain 2 μM of plasma sample 2 (concentration of DMSO≤0.2%), which was used for the determination of plasma protein binding rate at this concentration. […]
The equilibrium dialysis tube of RED Device Inserts was inserted into a 96-well plate. […] The chromatographic peak area ratios of the total drug (plasma chamber) and the free drug (buffer chamber) to the internal standard were determined directly by the LC/MS/MS method established above respectively, and the free percent (fu plasma %) was calculated.
Brain tissue protein binding equilibrium dialysis process: the blank brain tissue 2 was formulated into a blank brain homogenate with PBS (pH 7.4) according to a dilution factor of 11, and added with compound to formulate a 2 μM brain homogenate. Other procedures were the same with that of plasma protein binding, the chromatographic peak area ratios of the total drug (brain homo chamber) and the free drug (buffer chamber) to the internal standard were determined by the established LC/MS/MS method respectively, and the free percent (fu brain hom %) was calculated.
1) The drug concentrations in plasma 1 and brain tissue 1 of rats 0.5 h after administration were determined by the established LC/MS/MS method respectively, which were the total concentration (Ctotal, p and Ctotal, b); […]

[3] = Pharmacokinetics assay in rats after intragastrical administration; type: in vivo, SD rats; conditions: Sprague-Dawley, rat, plasma, po, 30 mg/kg, intragastric, male rats
Protocol: Male SD rats were used as test animals. The drug concentration in plasma at different time points was determined by LC/MS/MS method after intragastrical administration of the compounds of Examples 2, 17, 34, 37, 38, 39 and 43 to rats. The pharmacokinetic behavior of the compounds of the present invention was studied and evaluated in rats.
Twenty-one healthy adult male Sprague-Dawley (SD) rats were purchased from Shanghai Jiesijie Laboratory Animal Co., LTD, with Certificate No.: SCXK (Shanghai) 2013-0006, and equally divided into 7 groups (3 rats per group).
A certain amount of the test compound was weighed, and added with 2.5% by volume of DMSO and 97.5% by volume of 10% solutol HS-15 to formulate a […] colorless, clear and transparent solution.
After an overnight fast, SD rats were administered intragastrically the test compounds at an administration dosage of 30.0 mg/kg and an administration volume of 10.0 mL/kg.
The rats were intragastrically administered the compounds of Examples 2, 17, 34, 37, 38, 39 and 43. 0.2 mL of blood was taken from the orbital sinus before administration and at 0.5, 1.0, 2.0, 4.0, 6.0, 8.0, 11.0 and 24.0 hours after administration. The samples were stored in heparinized tubes, and centrifuged for 10 minutes at 4° C. at 3500 rpm to separate the plasma. The plasma samples were stored at −20° C. The rats were fed 2 hours after administration.
The content of the test compounds in the plasma of rats after intragastrical administration of the test compounds at different concentrations was determined: 50 μL of rat plasma at each time after administration was taken, added with 50 μL of the internal standard solution of camptothecin (100 ng/mL) and 150 μL of acetonitrile, vortex-mixed for 5 minutes, and centrifuged for 10 minutes (4000 rpm). 3 μL of the supernatant was taken from the plasma samples for LC/MS/MS analysis.

oxytocin receptor [4] = target: oxytocin receptor (Rattus norvegicus (Rat), UniProt P70536); conditions: intraventricular and intrathecal injection; cited from earlier work
Chain of oxytocin receptor (Rattus norvegicus (Rat), UniProt P70536) (P70536 whole entry): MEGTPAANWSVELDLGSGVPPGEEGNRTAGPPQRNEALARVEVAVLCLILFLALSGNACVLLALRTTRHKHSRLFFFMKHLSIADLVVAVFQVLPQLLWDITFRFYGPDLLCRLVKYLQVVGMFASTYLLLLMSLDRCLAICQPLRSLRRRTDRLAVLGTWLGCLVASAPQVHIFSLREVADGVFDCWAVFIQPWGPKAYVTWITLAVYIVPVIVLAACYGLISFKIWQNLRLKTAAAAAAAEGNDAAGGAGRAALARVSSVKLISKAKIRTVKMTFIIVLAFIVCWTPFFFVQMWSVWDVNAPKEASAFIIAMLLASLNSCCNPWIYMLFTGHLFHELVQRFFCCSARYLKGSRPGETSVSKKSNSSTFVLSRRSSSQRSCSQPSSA

oxytocin receptor [5] = target: T1, oxytocin receptor; conditions: cited from earlier work

SMILES: COCc1nnc(N2CC(Oc3ccc(F)cc3Cl)C2)n1-c1ccc(OC)nc1 [IX-01]
Vaginal ejaculation latency (oxytocin receptor [1]): can significantly prolong the vaginal ejaculation latency of the patient

IC50 (human OTR): 2 nM | Kp at 0.5 h [2]: 0.175 | Vd/F ([3]; read-out: Apparent distribution volume Vz/F): 27.8 ± 22.8 L/kg | AUC ([3]; read-out: Area under curve AUC): 5630 ± 3010 ng·h/mL | CL/F ([3]; read-out: Clearance CLz/F): 104 ± 44 mL/min/kg | half-life ([3]; read-out: Half-life T1/2 (converted)): 170 ± 114 min | Cmax ([3]; read-out: Plasma concentration Cmax): 1060 ± 270 ng/mL | MRT ([3]; read-out: Residence time MRT): 4.19 ± 1.25 h
SMILES: COc1ccc(-n2c(COC(F)F)nnc2N2CC(c3cccc4cc(F)ccc34)C2)cn1 [Example 38, 5-(3-((Difluoromethoxy)methyl)-5-(3-(6-fluoronaphthalen-1-yl)azetidin-1-yl)-4H-1,2,4-triazol-4-yl)-2-methoxypyridine]

Kp at 0.5 h [2]: 0.064
SMILES: COCc1nnc(N2CC(Oc3ccc(F)cc3Cl)C2)n1-c1ccc(OC)nc1 [5-(3-(3-(2-Chloro-4-fluorophenoxy)azetidin-1-yl)-5-(methoxymethyl)-4H-1,2,4-triazol-4-yl)-2-methoxypyridine, reference compound]

SMILES: CC[C@H](C)[C@@H]1C(=O)N[C@H](C2Cc3ccccc3C2)C(=O)N1[C@@H](C(=O)N1CCOCC1)c1ccc(C)nc1C [GSK557296]
Ejaculation behavior of rats (oxytocin receptor [4]): can effectively inhibit the ejaculation behavior of rats only when being administered at specific central sites | Efficacy after oral administration in phase II clinical trials (oxytocin receptor [5]): did not show corresponding efficacy
